This assay has as its system abcB11. Briefly: DT1 microarray drug screening, drug-treated HepG2: abcB11. In kind it is cell-based, human. The conditions noted are these: HepG2, vinblastine sulfate 25 nM, 8 h, standard 24. The procedure: The labelled cDNA target preparation was thawed and the 150 μl added to 850 ul hybridisation buffer (500 mM sodium Phosphate pH 6.0, 1% SDS, 1% BSA, 1 mM EDTA) in a 1.5 ml microtube and heated at 95° C. for 10 min.

Structures can show the parent of a compound that is named as a salt.

Regarding `CC[C@]1(O)C[C@@H]2CN(CCc3c([nH]c4ccccc34)[C@@](C(=O)OC)(c3cc4c(cc3OC)N(C)[C@H]3[C@@](O)(C(=O)OC)[C@H](OC(C)=O)[C@]5(CC)C=CCN6CC[C@]43[C@@H]65)C2)C1` [vin, vinblastine sulfate], the “relative level of abcB11 gene expression” value amounted to 9.053.
